# Measurements from PMC5715471 (ACS chemical neuroscience, 2017).
# pKi: −log10 of the molar value.
# What was measured:
# [1] = test system: GabaA; assay: PDSP radioligand binding, GabaA; details: 10 μM
# [2] = biological target: T1, σ2R/Tmem97 (Rattus norvegicus, UniProt Q5U3Y7); assay: Sigma 2 receptor competition binding with [3H]-ditolylguanidine; details: σ2R from rat PC12 cells
# T1 sequence (Q5U3Y7 1-176): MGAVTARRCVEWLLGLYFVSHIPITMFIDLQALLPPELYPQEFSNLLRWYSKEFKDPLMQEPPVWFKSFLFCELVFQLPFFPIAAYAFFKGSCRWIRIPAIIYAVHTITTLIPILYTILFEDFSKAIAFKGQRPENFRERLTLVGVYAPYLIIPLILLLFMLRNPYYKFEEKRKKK
# [3] = biological target: V2 (Homo sapiens, UniProt P30518); assay: PDSP radioligand binding, V2
# [4] = biological target: Alpha1b (Homo sapiens, UniProt P35368); assay: PDSP radioligand binding, Alpha1b; details: 10 μM
# [5] = biological target: D5 (Homo sapiens, UniProt P21918); assay: PDSP radioligand binding, D5; details: 10 μM
# [6] = biological target: M3 (Homo sapiens, UniProt P20309); assay: PDSP radioligand binding, M3; details: 10 μM
# [7] = biological target: A4B2 (Rattus norvegicus, UniProt P09483+P12390); assay: PDSP radioligand binding, A4B2 sourced from rodent brain; details: 10 μM
# [8] = biological target: M5 (Homo sapiens, UniProt P08912); assay: PDSP radioligand binding, M5; details: 10 μM
# [9] = biological target: D4 (Homo sapiens, UniProt P21917); assay: PDSP radioligand binding, D4; details: 10 μM
# [10] = biological target: A3B2 (Rattus norvegicus, UniProt P04757+P12390); assay: PDSP radioligand binding, A3B2; details: 10 μM
# [11] = biological target: 5HT1B (Homo sapiens, UniProt P28222); assay: PDSP radioligand binding, 5HT1B; details: 10 μM
# [12] = biological target: 5HT1D (Homo sapiens, UniProt P28221); assay: PDSP radioligand binding, 5HT1D; details: 10 μM
# [13] = biological target: 5HT1A (Homo sapiens, UniProt P08908); assay: PDSP radioligand binding, 5HT1A; details: 10 μM
# [14] = biological target: calcium channel; assay: PDSP radioligand binding, calcium channel
# [15] = biological target: KOR (Homo sapiens, UniProt P41145); assay: PDSP radioligand binding, KOR
# [16] = biological target: A7 (Rattus norvegicus, UniProt Q05941); assay: PDSP radioligand binding, A7 sourced from rodent brain; details: 10 μM
# [17] = biological target: 5HT5a (Homo sapiens, UniProt P47898); assay: PDSP radioligand binding, 5HT5a; details: 10 μM
# [18] = biological target: Alpha2a (Homo sapiens, UniProt P08913); assay: PDSP radioligand binding, Alpha2a; details: 10 μM
# Alpha2a, sequence (P08913 whole entry): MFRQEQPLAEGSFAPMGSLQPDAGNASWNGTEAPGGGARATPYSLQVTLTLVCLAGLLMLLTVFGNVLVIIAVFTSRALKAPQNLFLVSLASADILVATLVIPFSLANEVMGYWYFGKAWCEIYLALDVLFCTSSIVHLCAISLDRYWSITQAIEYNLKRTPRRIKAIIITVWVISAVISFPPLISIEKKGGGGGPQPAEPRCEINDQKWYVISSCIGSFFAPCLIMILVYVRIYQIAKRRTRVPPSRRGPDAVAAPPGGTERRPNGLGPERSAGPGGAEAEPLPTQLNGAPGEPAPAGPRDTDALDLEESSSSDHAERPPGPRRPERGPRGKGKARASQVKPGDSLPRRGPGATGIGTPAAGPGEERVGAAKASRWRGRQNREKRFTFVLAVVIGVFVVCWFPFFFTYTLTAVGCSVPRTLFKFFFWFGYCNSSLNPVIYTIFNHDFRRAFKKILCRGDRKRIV
# Alpha1b, sequence (P35368 whole entry): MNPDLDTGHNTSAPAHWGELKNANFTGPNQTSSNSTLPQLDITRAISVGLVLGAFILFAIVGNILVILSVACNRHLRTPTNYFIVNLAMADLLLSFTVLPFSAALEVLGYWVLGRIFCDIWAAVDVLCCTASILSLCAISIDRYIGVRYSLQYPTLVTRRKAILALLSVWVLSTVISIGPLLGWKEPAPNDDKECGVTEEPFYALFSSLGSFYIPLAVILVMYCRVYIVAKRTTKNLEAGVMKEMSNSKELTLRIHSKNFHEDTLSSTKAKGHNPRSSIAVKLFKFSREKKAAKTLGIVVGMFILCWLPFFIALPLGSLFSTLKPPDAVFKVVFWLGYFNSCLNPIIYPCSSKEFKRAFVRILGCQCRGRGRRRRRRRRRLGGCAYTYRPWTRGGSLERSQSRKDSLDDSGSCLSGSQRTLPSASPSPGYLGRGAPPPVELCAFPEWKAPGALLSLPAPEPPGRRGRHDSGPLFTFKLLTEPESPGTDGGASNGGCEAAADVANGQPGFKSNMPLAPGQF
# A3B2, sequence (P04757 26-499): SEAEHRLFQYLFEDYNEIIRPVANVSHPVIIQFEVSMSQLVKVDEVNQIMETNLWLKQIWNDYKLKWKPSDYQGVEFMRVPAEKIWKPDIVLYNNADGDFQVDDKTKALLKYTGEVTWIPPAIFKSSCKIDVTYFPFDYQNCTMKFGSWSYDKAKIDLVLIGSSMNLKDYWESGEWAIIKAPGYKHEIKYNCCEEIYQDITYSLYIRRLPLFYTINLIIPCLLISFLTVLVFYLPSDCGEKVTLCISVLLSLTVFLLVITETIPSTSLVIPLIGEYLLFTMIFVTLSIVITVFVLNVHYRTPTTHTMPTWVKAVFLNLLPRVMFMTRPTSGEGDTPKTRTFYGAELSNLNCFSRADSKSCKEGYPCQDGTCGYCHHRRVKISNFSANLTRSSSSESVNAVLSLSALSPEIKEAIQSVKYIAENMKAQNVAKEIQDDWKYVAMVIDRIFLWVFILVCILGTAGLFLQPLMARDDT
# A3B2, sequence (P12390 25-500): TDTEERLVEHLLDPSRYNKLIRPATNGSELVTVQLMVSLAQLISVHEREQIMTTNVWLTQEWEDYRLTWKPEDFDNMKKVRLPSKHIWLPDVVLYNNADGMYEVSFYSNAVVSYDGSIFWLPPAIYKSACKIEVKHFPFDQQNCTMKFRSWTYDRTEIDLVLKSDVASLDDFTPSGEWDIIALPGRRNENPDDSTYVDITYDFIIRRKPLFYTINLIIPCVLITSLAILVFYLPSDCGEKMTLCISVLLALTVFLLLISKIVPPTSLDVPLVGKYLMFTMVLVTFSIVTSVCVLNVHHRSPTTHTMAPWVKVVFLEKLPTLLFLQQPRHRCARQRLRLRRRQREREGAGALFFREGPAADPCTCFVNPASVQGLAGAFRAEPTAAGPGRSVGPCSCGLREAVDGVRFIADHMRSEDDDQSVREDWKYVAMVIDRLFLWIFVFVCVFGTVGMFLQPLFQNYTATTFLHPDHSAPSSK
# M3, sequence (P20309 whole entry): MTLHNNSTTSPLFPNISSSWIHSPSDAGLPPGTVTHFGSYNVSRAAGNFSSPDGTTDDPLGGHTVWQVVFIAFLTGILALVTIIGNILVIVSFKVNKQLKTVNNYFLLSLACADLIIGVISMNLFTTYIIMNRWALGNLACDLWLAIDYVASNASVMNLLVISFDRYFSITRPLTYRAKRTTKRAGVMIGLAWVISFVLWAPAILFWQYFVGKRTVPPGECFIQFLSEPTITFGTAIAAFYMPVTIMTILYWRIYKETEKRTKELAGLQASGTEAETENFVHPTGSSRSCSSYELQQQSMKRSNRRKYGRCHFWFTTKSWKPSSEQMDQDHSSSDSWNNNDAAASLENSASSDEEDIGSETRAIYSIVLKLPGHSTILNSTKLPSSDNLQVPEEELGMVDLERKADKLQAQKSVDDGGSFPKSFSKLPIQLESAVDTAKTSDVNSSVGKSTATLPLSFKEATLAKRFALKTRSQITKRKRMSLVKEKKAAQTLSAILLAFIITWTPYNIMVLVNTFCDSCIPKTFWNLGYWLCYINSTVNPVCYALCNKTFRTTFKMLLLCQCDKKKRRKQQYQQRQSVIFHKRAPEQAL
# 5HT5a, sequence (P47898 whole entry): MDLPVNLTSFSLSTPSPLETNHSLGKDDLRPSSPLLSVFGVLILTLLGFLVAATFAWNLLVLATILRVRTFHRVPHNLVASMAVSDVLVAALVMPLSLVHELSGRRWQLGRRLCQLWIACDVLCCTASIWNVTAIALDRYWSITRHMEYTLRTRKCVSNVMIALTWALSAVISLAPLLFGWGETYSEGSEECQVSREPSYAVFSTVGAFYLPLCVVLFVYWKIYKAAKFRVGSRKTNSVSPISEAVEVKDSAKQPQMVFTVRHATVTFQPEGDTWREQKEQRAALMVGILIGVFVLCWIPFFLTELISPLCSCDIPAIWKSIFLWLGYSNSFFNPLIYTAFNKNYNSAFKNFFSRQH
# 5HT1D, sequence (P28221 whole entry): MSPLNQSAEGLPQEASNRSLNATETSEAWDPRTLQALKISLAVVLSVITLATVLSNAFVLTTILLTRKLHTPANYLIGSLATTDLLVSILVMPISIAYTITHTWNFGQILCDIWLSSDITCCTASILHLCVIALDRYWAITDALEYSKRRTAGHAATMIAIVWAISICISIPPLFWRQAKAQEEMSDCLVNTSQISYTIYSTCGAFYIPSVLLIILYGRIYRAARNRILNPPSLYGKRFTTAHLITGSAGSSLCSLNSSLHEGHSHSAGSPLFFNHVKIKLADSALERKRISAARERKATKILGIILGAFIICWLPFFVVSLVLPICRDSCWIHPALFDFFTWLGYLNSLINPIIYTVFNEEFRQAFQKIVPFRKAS
# KOR, sequence (P41145 whole entry): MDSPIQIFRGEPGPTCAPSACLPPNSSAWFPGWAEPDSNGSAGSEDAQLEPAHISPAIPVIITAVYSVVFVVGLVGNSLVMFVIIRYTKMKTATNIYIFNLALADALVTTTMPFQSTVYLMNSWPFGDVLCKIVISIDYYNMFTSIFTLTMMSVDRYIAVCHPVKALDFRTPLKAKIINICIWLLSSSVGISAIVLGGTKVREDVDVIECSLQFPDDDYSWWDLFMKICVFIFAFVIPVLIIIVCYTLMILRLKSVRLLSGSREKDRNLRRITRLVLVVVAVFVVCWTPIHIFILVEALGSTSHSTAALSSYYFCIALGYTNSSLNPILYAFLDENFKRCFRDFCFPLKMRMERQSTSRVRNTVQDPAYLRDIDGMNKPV
# 5HT1A, sequence (P08908 whole entry): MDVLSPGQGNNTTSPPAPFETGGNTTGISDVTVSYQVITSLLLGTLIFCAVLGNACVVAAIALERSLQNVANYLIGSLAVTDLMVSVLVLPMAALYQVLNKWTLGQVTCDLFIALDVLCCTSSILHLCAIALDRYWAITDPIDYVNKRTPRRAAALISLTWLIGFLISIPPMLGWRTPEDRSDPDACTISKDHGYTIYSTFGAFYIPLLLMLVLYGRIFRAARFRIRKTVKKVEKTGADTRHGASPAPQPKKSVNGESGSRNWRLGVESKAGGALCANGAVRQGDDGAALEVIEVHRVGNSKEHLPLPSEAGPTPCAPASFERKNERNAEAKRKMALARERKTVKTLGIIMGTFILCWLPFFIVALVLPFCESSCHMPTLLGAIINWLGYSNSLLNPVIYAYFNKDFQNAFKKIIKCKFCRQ
# A4B2, sequence (P09483 31-630): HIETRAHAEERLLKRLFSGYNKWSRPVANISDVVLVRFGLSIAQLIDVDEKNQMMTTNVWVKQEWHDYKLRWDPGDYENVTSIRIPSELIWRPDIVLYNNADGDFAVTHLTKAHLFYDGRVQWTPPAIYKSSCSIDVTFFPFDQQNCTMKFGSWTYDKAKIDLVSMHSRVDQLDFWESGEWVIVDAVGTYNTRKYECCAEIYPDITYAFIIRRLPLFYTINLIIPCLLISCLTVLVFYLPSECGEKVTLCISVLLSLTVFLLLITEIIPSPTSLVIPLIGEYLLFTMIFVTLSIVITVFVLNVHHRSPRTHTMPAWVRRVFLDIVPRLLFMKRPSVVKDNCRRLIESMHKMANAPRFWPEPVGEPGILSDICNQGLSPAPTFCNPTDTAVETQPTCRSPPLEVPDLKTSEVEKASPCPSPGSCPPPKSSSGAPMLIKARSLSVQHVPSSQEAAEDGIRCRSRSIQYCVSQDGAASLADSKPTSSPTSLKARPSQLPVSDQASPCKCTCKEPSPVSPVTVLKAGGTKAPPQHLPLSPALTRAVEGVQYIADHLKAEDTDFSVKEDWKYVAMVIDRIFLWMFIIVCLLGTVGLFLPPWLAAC
# A4B2, sequence (P12390 25-500): as the sequence (P12390 25-500) above
smiles,measurement,setting,value
"OCCCN1CCCC2CC1c1cc(-c3ccc(C(F)(F)F)cc3)ccc12 (racemic) [UKH-1114, (±)-9-(4-(Trifluoromethyl)phenyl)-3,4,5,6-tetrahydro-1,6-methanobenzo[c]azocin-2(1H)-yl)propan-1-ol]","inhibition of radioligand binding (Ki column, footnote a)",[1],^a (<50% inhibition of radioligand binding at 10 μM)
same,affinity at σ2R/Tmem97 (in words),[2],high affinity
same,pKi,[3],< 5.00
same,"inhibition of radioligand binding (Ki column, footnote a)",[4],^a (<50% inhibition of radioligand binding at 10 μM)
same,"inhibition of radioligand binding (Ki column, footnote a)",[5],^a (<50% inhibition of radioligand binding at 10 μM)
same,"inhibition of radioligand binding (Ki column, footnote a)",[6],^a (<50% inhibition of radioligand binding at 10 μM)
same,"inhibition of radioligand binding (Ki column, footnote a)",[7],^a (<50% inhibition of radioligand binding at 10 μM)
same,"inhibition of radioligand binding (Ki column, footnote a)",[8],^a (<50% inhibition of radioligand binding at 10 μM)
same,"inhibition of radioligand binding (Ki column, footnote a)",[9],^a (<50% inhibition of radioligand binding at 10 μM)
same,"inhibition of radioligand binding (Ki column, footnote a)",[10],^a (<50% inhibition of radioligand binding at 10 μM)
same,"inhibition of radioligand binding (Ki column, footnote a)",[11],^a (<50% inhibition of radioligand binding at 10 μM)
same,"inhibition of radioligand binding (Ki column, footnote a)",[12],^a (<50% inhibition of radioligand binding at 10 μM)
same,"inhibition of radioligand binding (Ki column, footnote a)",[13],^a (<50% inhibition of radioligand binding at 10 μM)
same,pKi,[14],< 5.00
same,pKi,[15],5.86
same,"inhibition of radioligand binding (Ki column, footnote a)",[16],^a (<50% inhibition of radioligand binding at 10 μM)
same,"inhibition of radioligand binding (Ki column, footnote a)",[17],^a (<50% inhibition of radioligand binding at 10 μM)
same,"inhibition of radioligand binding (Ki column, footnote a)",[18],^a (<50% inhibition of radioligand binding at 10 μM)
